# Assay results taken from ChEMBL document CHEMBL1201862, “PubChem BioAssay data set” (2004).
# Calls of active or inactive are those of the source.
# Columns and labels:
# [1] = growth suppression of PTEN-null colon cells, dose response, cell-based, HCT116 PTEN knockout (AID 1047); format: functional;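 note: HCT116 colon tumor cells with PTEN knocked out; cells exposed to compound for 60 hours before readout; potency for loss of cell viability measured by luminescence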
# [2] = growth suppression of beta-catenin-knockout colon cells, dose response, cell-based, HCT116, human colon tumor (AID 1045); format: functional;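 note: HCT116 colon tumor cells with beta catenin knocked out; cells exposed to compound for 60 hours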
# Coagulation factor XII = target: T1, Coagulation factor XII (Homo sapiens, UniProt P00748); format: functional;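 note: activated factor XIIa alpha cleaving a fluorogenic AMC peptide substrate; inhibitor potency from loss of enzyme activity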
# T1 sequence (P00748 whole entry): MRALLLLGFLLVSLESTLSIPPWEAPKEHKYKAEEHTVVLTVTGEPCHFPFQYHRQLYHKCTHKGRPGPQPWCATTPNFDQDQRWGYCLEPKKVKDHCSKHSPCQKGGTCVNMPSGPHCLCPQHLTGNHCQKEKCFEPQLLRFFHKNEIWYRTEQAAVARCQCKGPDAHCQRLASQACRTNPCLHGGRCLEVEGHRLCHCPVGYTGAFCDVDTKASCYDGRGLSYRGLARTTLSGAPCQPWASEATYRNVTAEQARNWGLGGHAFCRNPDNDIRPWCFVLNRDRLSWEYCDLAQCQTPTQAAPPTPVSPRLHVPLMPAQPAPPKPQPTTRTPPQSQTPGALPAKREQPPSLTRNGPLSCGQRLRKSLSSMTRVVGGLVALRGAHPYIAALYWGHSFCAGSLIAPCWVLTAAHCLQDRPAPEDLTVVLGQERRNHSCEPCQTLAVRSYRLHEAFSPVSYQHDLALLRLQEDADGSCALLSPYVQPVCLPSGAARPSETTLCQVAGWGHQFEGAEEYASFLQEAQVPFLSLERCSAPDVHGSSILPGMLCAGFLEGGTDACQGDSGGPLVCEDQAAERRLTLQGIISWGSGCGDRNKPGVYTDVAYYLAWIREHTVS
# [3] = target: T2, Heat shock factor protein 1 (Mus musculus, UniProt P38532); experiment: HSF1 potentiators in luciferase reporter cells, confirmation, cell-based, NIH3T3, luminescence, dose retest (AID 435004); format: functional;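 note: stress induced by proteasome inhibitor MG132 added 30 min after compound; luciferase reporter driven by HSF1 response element in NIH3T3 cells; actives raise luminescence as potentiators of the MG132 stress response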
# T2 sequence (P38532 whole entry): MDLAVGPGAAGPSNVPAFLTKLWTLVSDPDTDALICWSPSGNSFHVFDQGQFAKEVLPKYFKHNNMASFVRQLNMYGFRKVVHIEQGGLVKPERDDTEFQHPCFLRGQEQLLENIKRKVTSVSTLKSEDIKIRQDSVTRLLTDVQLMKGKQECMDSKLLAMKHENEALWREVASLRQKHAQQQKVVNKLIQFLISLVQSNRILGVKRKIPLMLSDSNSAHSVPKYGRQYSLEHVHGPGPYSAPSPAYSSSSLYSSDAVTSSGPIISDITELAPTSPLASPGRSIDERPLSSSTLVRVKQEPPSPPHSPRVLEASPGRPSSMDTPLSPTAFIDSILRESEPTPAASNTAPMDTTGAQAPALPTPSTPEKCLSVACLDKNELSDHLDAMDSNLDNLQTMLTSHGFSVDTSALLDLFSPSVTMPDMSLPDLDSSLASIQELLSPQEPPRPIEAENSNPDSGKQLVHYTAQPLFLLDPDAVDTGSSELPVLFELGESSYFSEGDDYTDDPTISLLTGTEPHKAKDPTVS
# [4] = Shn3 3'UTR reporter inhibitors, dose response, cell-based, Clone20 osteoblasts, firefly luciferase, cherry-picked (AID 624132); format: functional;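 note: firefly luciferase luminescence from reporter carrying the Shn3 3'UTR in osteoblasts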
# [5] = HepG2 cell cytotoxicity, dose response, cytotoxicity control for Shn3 inhibitor project, CellTiter-Glo, cherry-picked (AID 624134); format: functional, cell-based
# [6] = control 3'UTR Renilla luciferase suppression, dose response, counter-screen for Shn3 inhibitor project, cell-based, Clone20-Shn3RL, cherry-picked (AID 624133); format: functional
# [7] = target: T3, Short transient receptor potential channel 4 (Mus musculus, UniProt Q9QUQ5); experiment: mouse TRPC4 channel inhibitors, dose response, cell-based, HEK293 TRPC4/mu-opioid, Fluo-4 calcium (AID 434942); format: functional;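 note: potency of inhibitors blocking the TRPC4 calcium response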
# T3 sequence (Q9QUQ5 whole entry): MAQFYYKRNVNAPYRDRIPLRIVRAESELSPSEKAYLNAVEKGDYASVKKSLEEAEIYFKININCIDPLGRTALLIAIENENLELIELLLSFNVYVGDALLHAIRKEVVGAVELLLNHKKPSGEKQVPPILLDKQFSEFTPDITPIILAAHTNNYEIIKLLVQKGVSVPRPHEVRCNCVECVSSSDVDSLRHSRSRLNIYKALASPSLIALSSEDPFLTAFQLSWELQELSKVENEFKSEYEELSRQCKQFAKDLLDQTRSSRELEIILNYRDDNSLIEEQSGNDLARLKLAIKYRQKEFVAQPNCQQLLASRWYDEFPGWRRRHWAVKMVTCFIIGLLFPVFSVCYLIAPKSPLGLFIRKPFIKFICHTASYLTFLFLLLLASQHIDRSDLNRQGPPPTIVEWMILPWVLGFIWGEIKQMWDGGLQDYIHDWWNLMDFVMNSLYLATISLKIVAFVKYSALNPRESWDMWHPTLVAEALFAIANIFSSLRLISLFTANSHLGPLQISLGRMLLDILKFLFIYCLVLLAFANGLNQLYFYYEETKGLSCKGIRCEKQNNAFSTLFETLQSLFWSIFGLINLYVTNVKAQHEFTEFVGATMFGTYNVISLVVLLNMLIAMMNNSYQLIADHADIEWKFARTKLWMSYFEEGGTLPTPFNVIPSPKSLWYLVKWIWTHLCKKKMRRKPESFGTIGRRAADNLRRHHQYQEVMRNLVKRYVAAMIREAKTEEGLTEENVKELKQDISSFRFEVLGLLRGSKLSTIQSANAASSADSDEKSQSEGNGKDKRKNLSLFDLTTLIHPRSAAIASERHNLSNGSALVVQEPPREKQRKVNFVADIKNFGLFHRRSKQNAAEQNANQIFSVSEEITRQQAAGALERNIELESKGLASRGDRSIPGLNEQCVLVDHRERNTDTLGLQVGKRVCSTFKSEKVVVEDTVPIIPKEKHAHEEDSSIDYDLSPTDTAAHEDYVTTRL
# [8] = target: Ras and Rab interactor 1/Tyrosine-protein kinase ABL1 (Homo sapiens, UniProt P00519+Q13671); format: functional;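 note: biochemical TR-FRET dose-response test measuring inhibition of binding between Rin1 and Abl proteins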
# [9] = inhibitors of firefly luciferase expression or activity, dose response, H4 neuroglioma cells, luminescence (AID 1990); format: functional, cell-based
# [10] = inhibitors of SNCA 5'UTR-driven reporter translation, confirmation, H4 neuroglioma cells, luminescence (AID 1988); format: functional, cell-based
# Vero [11] = experiment: cells; format: functional, cell-based; conditions: Chlorocebus sabaeus
# Vero [12] = experiment: cells; format: functional; conditions: Chlorocebus sabaeus
# [13] = target: T4, Small ubiquitin-related modifier 1 (Homo sapiens, UniProt P63165); experiment: inhibitors of SUMO1 peptide binding, dose response, biochemical, fluorescence polarization, uHTS hits (AID 624382); format: functional; conditions: read-out: IC50_Mean
# [14] = target: T4, Small ubiquitin-related modifier 1; experiment: inhibitors of SUMO1 partner interactions, dose response, biochemical, FRET (AID 624383); format: functional; conditions: read-out: IC50_Mean
# [15] = target: T2, Heat shock factor protein 1; experiment: inhibition of MG132-induced HSE-luciferase signal, confirmation, cell-based, NIH3T3, luminescence, dose retest (AID 2382); format: functional;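 note: NIH3T3 fibroblasts with HSF1-driven luciferase reporter stressed by proteasome inhibitor MG132; luminescence from HSF1-driven luciferase expression after 8 hours of MG132 stress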
# [16] = target: T5, Corticotropin-releasing factor receptor 2/Corticotropin-releasing factor-binding protein (Homo sapiens, UniProt P24387+Q13324); experiment: Dose Response confirmation of uHTS hits for small molecule antagonists of the CRF-binding protein and CRF-R2 receptor complex.; format: functional; conditions: read-out: IC50_Mean
# T5 sequence (Q13324 whole entry): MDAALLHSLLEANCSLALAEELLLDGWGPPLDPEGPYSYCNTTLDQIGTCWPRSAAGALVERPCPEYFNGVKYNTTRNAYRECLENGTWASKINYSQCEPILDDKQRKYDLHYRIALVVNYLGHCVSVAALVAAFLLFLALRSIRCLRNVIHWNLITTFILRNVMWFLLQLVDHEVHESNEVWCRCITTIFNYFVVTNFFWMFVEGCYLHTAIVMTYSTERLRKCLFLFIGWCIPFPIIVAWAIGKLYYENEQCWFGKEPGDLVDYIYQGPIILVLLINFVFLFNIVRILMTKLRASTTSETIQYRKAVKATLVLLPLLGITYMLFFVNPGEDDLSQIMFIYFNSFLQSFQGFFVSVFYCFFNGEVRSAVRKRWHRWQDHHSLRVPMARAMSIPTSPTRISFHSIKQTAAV
# T5 sequence (P24387 whole entry): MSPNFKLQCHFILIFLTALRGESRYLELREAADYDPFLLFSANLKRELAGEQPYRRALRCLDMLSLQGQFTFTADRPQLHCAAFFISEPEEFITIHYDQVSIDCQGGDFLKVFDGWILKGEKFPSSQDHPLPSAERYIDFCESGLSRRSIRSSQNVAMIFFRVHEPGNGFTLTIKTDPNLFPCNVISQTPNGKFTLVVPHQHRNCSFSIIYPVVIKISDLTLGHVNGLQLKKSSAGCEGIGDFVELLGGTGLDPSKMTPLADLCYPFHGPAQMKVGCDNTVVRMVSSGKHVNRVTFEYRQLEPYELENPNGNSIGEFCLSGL
# [17] = target: T5, Corticotropin-releasing factor receptor 2/Corticotropin-releasing factor-binding protein; experiment: activators of CRF receptor 2 with binding protein – uHTS hits, confirmation (AID 602473); format: functional; conditions: read-out: EC50_Mean
# [18] = CRF-BP/CRF-R2 complex antagonists, dose response, cell-based, uHTS hits, 384-well (AID 651639); format: functional, Homo sapiens; conditions: read-out: IC50_Mean
# Protein Wnt-3a = Protein Wnt-3a (Mus musculus, UniProt P27467); experiment: Wnt3a-driven reporter signaling inhibition, dose response, selectivity assay for Gli-SUFU antagonist project, Wnt-LIGHT cells, luminescence (AID 651570); format: functional; conditions: read-out: IC50_Mean;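 note: Wnt-LIGHT reporter cells stimulated with conditioned medium from Wnt3a-producing cells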
# [19] = miR-122 activators in hepatoma reporter cells, dose response, cell-based, Huh7 psiCHECK-miR122, Renilla luciferase, cherry-picked (AID 651956); format: functional;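 note: huh7 hepatoma cells stably carrying a psiCHECK-2 miR-122 sensor plasmid; renilla luciferase signal reporting endogenous miR-122 activity after 48 h compound exposure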
# T4 sequence (P63165 whole entry): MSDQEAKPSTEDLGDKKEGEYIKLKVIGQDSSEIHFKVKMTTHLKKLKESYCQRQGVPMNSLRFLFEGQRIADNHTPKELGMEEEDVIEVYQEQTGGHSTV
# Ras and Rab interactor 1/Tyrosine-protein kinase ABL1, sequence (P00519 whole entry): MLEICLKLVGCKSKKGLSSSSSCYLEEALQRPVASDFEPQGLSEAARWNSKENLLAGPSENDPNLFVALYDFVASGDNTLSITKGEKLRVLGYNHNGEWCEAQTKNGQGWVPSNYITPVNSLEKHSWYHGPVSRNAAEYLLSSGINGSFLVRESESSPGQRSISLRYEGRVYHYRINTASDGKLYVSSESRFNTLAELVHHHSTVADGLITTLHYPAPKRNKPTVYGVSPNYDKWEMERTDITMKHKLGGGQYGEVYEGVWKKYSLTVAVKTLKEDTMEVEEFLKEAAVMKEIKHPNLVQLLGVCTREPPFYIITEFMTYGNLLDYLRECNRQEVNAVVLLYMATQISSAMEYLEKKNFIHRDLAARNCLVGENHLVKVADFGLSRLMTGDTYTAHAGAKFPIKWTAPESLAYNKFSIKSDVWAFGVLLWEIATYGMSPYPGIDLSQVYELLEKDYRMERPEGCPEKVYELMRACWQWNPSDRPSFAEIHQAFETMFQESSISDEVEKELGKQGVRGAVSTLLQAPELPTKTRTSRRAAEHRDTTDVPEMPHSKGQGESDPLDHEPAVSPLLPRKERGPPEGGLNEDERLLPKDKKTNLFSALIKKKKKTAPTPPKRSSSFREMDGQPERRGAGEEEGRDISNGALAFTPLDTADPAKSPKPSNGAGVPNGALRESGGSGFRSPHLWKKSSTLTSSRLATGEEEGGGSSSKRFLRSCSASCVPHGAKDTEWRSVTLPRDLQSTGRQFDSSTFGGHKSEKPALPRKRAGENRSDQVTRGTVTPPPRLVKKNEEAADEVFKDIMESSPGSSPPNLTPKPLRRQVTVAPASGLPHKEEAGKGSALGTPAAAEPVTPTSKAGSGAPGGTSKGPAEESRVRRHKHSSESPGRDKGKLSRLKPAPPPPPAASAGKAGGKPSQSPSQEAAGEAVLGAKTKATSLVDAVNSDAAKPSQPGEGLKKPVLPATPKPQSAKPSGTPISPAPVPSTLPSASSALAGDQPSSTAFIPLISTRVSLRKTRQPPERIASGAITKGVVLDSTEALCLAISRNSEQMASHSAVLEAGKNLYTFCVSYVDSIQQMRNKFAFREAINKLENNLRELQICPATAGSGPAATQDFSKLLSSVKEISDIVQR
# Ras and Rab interactor 1/Tyrosine-protein kinase ABL1, sequence (Q13671 whole entry): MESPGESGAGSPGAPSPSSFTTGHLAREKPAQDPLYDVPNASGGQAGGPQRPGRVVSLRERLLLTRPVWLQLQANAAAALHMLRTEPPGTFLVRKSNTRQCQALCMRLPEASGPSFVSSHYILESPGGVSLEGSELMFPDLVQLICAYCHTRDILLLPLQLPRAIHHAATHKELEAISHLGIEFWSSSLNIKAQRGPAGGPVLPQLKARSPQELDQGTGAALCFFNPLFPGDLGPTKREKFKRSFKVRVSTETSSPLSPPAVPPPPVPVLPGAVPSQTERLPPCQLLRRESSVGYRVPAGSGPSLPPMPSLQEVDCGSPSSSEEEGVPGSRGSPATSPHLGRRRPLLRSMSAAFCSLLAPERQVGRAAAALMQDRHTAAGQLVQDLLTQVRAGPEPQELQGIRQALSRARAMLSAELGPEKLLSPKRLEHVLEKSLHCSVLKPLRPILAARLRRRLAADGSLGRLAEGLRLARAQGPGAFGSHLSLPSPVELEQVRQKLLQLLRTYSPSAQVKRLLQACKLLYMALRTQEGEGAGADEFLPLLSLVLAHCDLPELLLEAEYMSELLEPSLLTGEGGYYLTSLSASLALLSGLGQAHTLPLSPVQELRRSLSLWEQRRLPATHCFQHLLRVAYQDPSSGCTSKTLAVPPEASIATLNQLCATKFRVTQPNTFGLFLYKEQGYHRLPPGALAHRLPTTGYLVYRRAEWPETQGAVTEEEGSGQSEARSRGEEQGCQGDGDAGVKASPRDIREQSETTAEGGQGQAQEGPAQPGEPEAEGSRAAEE
# Protein Wnt-3a, sequence (P27467 whole entry): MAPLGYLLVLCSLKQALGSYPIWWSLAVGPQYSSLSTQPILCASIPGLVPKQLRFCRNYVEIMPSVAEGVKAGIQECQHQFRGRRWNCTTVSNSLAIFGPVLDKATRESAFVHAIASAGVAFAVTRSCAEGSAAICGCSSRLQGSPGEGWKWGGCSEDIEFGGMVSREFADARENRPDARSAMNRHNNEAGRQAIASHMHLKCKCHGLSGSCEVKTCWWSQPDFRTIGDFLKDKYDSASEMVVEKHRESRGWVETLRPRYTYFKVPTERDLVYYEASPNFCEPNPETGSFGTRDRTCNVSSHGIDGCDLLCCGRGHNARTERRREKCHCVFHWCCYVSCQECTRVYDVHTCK
structure (smiles),measurement,setting,value
O=C(CN(C(=O)c1ccccc1Cl)C1CCCCC1)Nc1ccc(Cl)c([N+](=O)[O-])c1,EC50,[1],16.1 µM (active)
same,EC50,[2],17.4 µM (active)
same,IC50,Coagulation factor XII,> 50 µM (inactive)
same,EC50,[3],> 260 µM (inactive)
same,AC50,[4],5.1 µM (active)
same,AC50,[5],63.7 µM (active)
same,AC50,[6],10.8 µM (active)
CCOc1ccccc1N(C(=O)c1snc(C(N)=O)c1N)C(C(=O)NCc1ccccc1)c1ccc(O)cc1 (stereo not given),EC50,[7],4.22 µM (active)
same,IC50,[8],> 73.5 µM (inactive)
O=C(NC1CCCc2c1cnn2-c1ccccc1F)c1ccccn1 (stereo not given),EC50,[9],> 120 µM (not active)
same,EC50,[10],57.4 µM (active)
same,IC50,Vero [11],5.73 µM (active)
same,CC50,Vero [12],> 25 µM (active)
C=C(C)C(=O)Nc1ccc2c(c1)OCCOCCOCCO2,IC50,[13],> 66.6 µM (inactive)
same,IC50,[14],1.74 µM (active)
COc1cccc(CNc2ccc(S(N)(=O)=O)cc2)c1OC,EC50,[15],> 195 µM (not active)
same,IC50,Coagulation factor XII,> 50 µM (inactive)
CCOC(=O)c1c(-c2ccc(OC)c(OC)c2)csc1NC(=O)C1CCCO1 (stereo not given),IC50,[16],3.95 µM (active)
same,EC50,[17],> 53 µM (inactive)
same,IC50,[18],> 20 µM (inactive)
CCOC(CN=c1nc(N(C)C)ss1)OCC,IC50,Protein Wnt-3a,40.4 µM (inactive)
CN(C)CC1CCC/C(=C/c2ccc(Cl)cc2)C1=O (stereo not given),IC50,Vero [11],> 25 µM (active)
same,CC50,Vero [12],21.4 µM (active)
CN(c1ccccc1)S(=O)(=O)c1ccc(C(=O)Nc2cccc(S(=O)(=O)N3CCOCC3)c2)cc1,AC50,[19],59.3 µM (active)
CC(=O)Nc1cccc(-c2ccnc3c2CC(C(=O)NCc2ccc(N4CCN(C)CC4)cc2)O3)c1 (stereo not given),IC50,[8],14.4 µM (inactive)
